{
  "source": "paper PMC10515631",
  "about": "“Mapping the Initial Stages of a Protective Pathway that Enhances Catalytic Turnover by a Lytic Polysaccharide Monooxygenase” (Journal of the American Chemical Society, 2023)",
  "assay_in_all_cases": "stopped-flow UV-vis",
  "type_in_all_cases": "biochemical",
  "details_in_all_cases": "oxidant reacting with Cu(I) enzyme, no polysaccharide substrate; 100 uM enzyme, 500 uM oxidant",
  "key": {"TaAA9": {"target": "T1, TaAA9 (Thermoascus aurantiacus, UniProt G3XAP7)", "T1 construct": "gene LPMO9A; mature secreted AA9 LPMO, Cu(I) form; host and construct only in supplement", "T1 sequence (G3XAP7 whole entry)": "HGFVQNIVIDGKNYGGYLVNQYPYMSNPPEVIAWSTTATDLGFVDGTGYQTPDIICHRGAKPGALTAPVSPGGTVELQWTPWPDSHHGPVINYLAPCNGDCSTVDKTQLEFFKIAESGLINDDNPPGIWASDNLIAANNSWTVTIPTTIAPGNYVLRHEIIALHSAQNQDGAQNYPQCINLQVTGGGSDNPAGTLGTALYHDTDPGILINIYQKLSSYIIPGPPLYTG"}, "CvAA9": {"target": "T2, CvAA9 (Achaetomiella virescens, UniProt A0A223GEC9)", "T2 construct": "gene AA9A; mature secreted AA9 LPMO, Cu(I) form; host and construct only in supplement", "T2 sequence (A0A223GEC9 23-274)": "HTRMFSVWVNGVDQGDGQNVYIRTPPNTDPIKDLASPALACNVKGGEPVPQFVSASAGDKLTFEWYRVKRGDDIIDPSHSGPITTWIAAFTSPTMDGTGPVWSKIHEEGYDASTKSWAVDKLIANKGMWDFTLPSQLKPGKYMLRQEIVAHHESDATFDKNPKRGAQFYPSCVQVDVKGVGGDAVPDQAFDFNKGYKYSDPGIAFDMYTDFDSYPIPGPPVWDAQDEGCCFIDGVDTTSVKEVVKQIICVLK"}, "LsAA9": {"target": "T3, LsAA9 (Panus similis, UniProt A0A0S2GKZ1)", "T3 construct": "gene LPMO9A; mature secreted AA9 LPMO, Cu(I) form; expressed in Escherichia coli (fungal host also compared); details in supplement", "T3 sequence (A0A0S2GKZ1 20-254)": "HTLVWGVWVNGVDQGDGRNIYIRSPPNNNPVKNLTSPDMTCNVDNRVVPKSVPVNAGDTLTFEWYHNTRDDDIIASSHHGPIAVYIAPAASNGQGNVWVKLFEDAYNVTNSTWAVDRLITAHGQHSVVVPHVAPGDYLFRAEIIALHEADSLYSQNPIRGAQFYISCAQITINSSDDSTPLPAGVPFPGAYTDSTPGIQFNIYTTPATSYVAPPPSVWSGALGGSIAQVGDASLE"}},
  "data": [
    {"compound": "O=C(OO)c1cccc(Cl)c1", "note": "[m-CPBA, meta-chloro-perbenzoic acid]", "values": [
      {"measurement": "stopped-flow UV-vis", "setting": "TaAA9", "value": "transient intermediates generated upon oxidation of CuI–TaAA9, CvAA9, and LsAA9 with mCPBA"},
      {"measurement": "stopped-flow UV-vis", "setting": "CvAA9", "value": "transient intermediates generated upon oxidation of CuI–TaAA9, CvAA9, and LsAA9 with mCPBA"},
      {"measurement": "stopped-flow UV-vis", "setting": "LsAA9", "value": "transient intermediates generated upon oxidation of CuI–TaAA9, CvAA9, and LsAA9 with mCPBA"}
    ]}
  ]
}
